Reference: ChEMBL document CHEMBL4627389, “Constituents of Two Dioscorea Species That Potentiate Antibiotic Activity against MRSA” (2020)
Each block holds one molecule with its values, some of them ahead of it. Active and inactive are the calls of the source. The calls are words filed in the database; no cut-off is given here.

How the values were obtained:
[1] = tested on: Staphylococcus aureus; test: Antibacterial activity against Staphylococcus aureus 1199B assessed as inhibition of efflux pump by measuring increase in intracellular accumulation of ethidium bromide at 0.25 times of MIC after 30 mins by fluorescence assay; format: functional, organism-based
[2] = tested on: Staphylococcus aureus; test: Potentiation of […] antibacterial activity against Staphylococcus aureus XU212 assessed as fold reduction in tetracycline MIC at 64 mg/L by broth dilution assay relative to tetracycline alone; format: functional
[3] = tested on: Staphylococcus aureus; test: Potentiation of […] antibacterial activity against Staphylococcus aureus XU212 assessed as tetracycline MIC at 64 mg/L by broth dilution assay (reference value: […]); format: functional
[4] = tested on: Staphylococcus aureus; test: Potentiation of norfloxacin-induced antibacterial activity against Staphylococcus aureus 1199B assessed as fold reduction in norfloxacin MIC at 64 mg/L by broth dilution assay relative to norfloxacin alone; format: functional
[5] = tested on: Staphylococcus aureus; test: Potentiation of norfloxacin-induced antibacterial activity against Staphylococcus aureus 1199B assessed as norfloxacin MIC at 64 mg/L by broth dilution assay (reference value: 32 mg/L); format: functional
[6] = tested on: Staphylococcus aureus; test: Potentiation of […] antibacterial activity against Staphylococcus aureus XU212 assessed as fold reduction in tetracycline MIC at 100 mg/L by broth dilution assay relative to tetracycline alone; format: functional
[7] = tested on: Staphylococcus aureus; test: Potentiation of […] antibacterial activity against Staphylococcus aureus XU212 assessed as tetracycline MIC at 100 mg/L by broth dilution assay (reference value: […]); format: functional
[8] = tested on: Staphylococcus aureus; test: Potentiation of norfloxacin-induced antibacterial activity against Staphylococcus aureus 1199B assessed as fold reduction in norfloxacin MIC at 100 mg/L by broth dilution assay relative to norfloxacin alone; format: functional
[9] = tested on: Staphylococcus aureus; test: Potentiation of norfloxacin-induced antibacterial activity against Staphylococcus aureus 1199B assessed as norfloxacin MIC at 100 mg/L by broth dilution assay (reference value: 32 mg/L); format: functional
[10] = tested on: Staphylococcus aureus; test: Potentiation of […] antibacterial activity against Staphylococcus aureus XU212 assessed as tetracycline MIC at 30 mg/L by broth dilution assay (reference value: […]); format: functional
[11] = tested on: Staphylococcus aureus; test: Potentiation of norfloxacin-induced antibacterial activity against Staphylococcus aureus 1199B assessed as fold reduction in norfloxacin MIC at 30 mg/L by broth dilution assay relative to norfloxacin alone; format: functional
[12] = tested on: Staphylococcus aureus; test: Potentiation of norfloxacin-induced antibacterial activity against Staphylococcus aureus 1199B assessed as norfloxacin MIC at 30 mg/L by broth dilution assay (reference value: 32 mg/L); format: functional
[13] = tested on: Staphylococcus aureus; test: Antibacterial activity against Staphylococcus aureus 1199B assessed as inhibition of efflux pump by measuring increase in intracellular accumulation of ethidium bromide after 30 mins by fluorescence assay; format: functional, organism-based
[14] = tested on: Staphylococcus aureus; test: Potentiation of […] antibacterial activity against Staphylococcus aureus XU212 assessed as fold reduction in tetracycline MIC at 20 mg/L by broth dilution assay relative to tetracycline alone; format: functional
[15] = tested on: Staphylococcus aureus; test: Potentiation of […] antibacterial activity against Staphylococcus aureus XU212 assessed as tetracycline MIC at 20 mg/L by broth dilution assay (reference value: […]); format: functional
[16] = tested on: Staphylococcus aureus; test: Potentiation of norfloxacin-induced antibacterial activity against Staphylococcus aureus 1199B assessed as fold reduction in norfloxacin MIC at 20 mg/L by broth dilution assay relative to norfloxacin alone; format: functional
[17] = tested on: Staphylococcus aureus; test: Potentiation of norfloxacin-induced antibacterial activity against Staphylococcus aureus 1199B assessed as norfloxacin MIC at 20 mg/L by broth dilution assay (reference value: 32 mg/L); format: functional

MIC [7]: < 0.25 mg/L
MIC [9]: 16 mg/L
SMILES: COc1cc(CCC(=O)C[C@H](O)CC(=O)CCc2ccc(O)cc2)ccc1O
fold change (FC) [6]: 512
fold change (FC) [8]: 2

MIC [10]: 128 mg/L
MIC [12]: 8 mg/L
SMILES: COc1cc(CCC(=O)CC(O)CC(=O)CCc2ccc(O)c(OC)c2)ccc1O
inhibition [1]: Active
fold change (FC) [11]: 4

The next lines start with the molecule.

SMILES: COc1cc(CCc2ccccc2O)cc(O)c1OC
inhibition [1]: Active
fold change (FC) [2]: 2
MIC [3]: 64 mg/L
fold change (FC) [4]: 16
MIC [5]: 2 mg/L

SMILES: COc1ccc(/C=C/C(=O)OCCCCCCCCCCCCCCCCCCCCCCCCCCCCCCCC(=O)O)cc1O
fold change (FC) [6]: 16
MIC [7]: 8 mg/L
fold change (FC) [8]: 8
MIC [9]: 4 mg/L

SMILES: COC(=O)[C@H]1[C@H]2C[C@@H]3c4[nH]c5cc(OC)ccc5c4CCN3C[C@H]2C[C@@H](OC(=O)c2cc(OC)c(OC)c(OC)c2)[C@@H]1OC [RESERPINE]
inhibition [1]: Active
inhibition [13]: Dose-dependent effect
fold change (FC) [14]: 2
MIC [15]: 64 mg/L
fold change (FC) [16]: 2
MIC [17]: 16 mg/L
